Measured values as given in patent US20240398768A1, “METHODS OF TREATING SOLID TUMOR USING HETEROAROMATIC MACROCYCLIC ETHER COMPOUNDS” (Nuvalent, Inc., priority 2021, published 2024).
Like-named read-outs stand apart in the source and are kept apart here.

Experiments:
CYP3A4 = experiment: CYP induction; type: in vitro ADME
CYP2C19 = CYP2C19 (Homo sapiens, UniProt P33261); experiment: CYP substrate assessment; type: in vitro ADME
[1] = Phase 1/2 clinical study: pharmacokinetics; type: in vivo, human; details: for half-life / AUC(0-inf) / Cmax / Vd/F / Tmax / AUC(0-t) / AUC / concentration at 15 day: human, plasma, oral; for Vd/F: read-out: Vz/F; for Tmax: median; for concentration at 15 day: read-out: Cmin
Excerpt: Each cycle of treatment is 28 days.

Ba/F3 CLIP1-LTK = molecular target: T1, Ba/F3 CLIP1-LTK (Homo sapiens, UniProt P29376); experiment: Cell viability assay for LTK cell line; type: cell-based; details: 72 hours
T1 construct: expressed in transfected cells; host or cells: Ba/F3 (RIKEN), pMSCV-puro retrovirus; the other entry of the earlier key: CLIP1 (P30622, CAP-Gly domain-containing linker protein 1)
T1 sequence (P29376 450-864 limits assumed): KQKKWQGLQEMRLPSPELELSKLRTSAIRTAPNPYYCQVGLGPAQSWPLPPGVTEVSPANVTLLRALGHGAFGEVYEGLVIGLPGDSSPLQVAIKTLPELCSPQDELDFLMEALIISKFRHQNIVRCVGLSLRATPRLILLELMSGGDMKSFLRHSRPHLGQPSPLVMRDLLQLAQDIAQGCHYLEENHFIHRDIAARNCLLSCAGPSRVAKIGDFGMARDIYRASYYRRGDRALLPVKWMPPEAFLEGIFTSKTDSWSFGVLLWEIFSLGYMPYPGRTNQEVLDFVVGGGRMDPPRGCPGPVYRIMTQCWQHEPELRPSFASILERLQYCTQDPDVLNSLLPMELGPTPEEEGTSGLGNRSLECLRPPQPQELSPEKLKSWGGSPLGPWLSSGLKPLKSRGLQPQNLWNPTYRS
Protocol: Generation of Ba/F3 Stable Cell Lines: Genes encoding CLIP1-LTK were synthesized, cloned into the retroviral construct pMSCV-puro (Biovector), and packaged into retroviral particles. The virus was used to infect Ba/F3 cells (RIKEN) at multiplicity of infection=1 or 10 for 1 day. Infected cells were rescued in media (RPMI-1640 with 10% fetal bovine serum and 1% streptomycin and penicillin) supplemented with mouse IL-3 (10 ng/mL) for 2 days, and stable cell lines were selected by IL-3 withdrawal and puromycin (0.8 μg/mL) for 7 days. Transformation of desired genes was confirmed by Sanger sequencing and western blot.
Cell Proliferation Assay: Stable cells were plated at 1,000 cells/well (40 μL) in a 384-well plate for 1 day. Test compounds (40 nL) were then added in a 3-fold dilution series using the TECAN EVO200 liquid handler and incubated for 72 hours. Plates were equilibrated at room temperature for 15 minutes followed by addition of 40 μL CellTiter-Glo reagent (Promega). Luminescence was measured on a plate reader. Half-maximal inhibitory concentration (IC50) was calculated from percent inhibition and inhibitor concentration using four-parameter logistic regression.

CYP2D6 = CYP2D6 (Homo sapiens, UniProt P10635); experiment: CYP substrate assessment; type: in vitro ADME
Sequence of CYP2D6 (P10635 whole entry): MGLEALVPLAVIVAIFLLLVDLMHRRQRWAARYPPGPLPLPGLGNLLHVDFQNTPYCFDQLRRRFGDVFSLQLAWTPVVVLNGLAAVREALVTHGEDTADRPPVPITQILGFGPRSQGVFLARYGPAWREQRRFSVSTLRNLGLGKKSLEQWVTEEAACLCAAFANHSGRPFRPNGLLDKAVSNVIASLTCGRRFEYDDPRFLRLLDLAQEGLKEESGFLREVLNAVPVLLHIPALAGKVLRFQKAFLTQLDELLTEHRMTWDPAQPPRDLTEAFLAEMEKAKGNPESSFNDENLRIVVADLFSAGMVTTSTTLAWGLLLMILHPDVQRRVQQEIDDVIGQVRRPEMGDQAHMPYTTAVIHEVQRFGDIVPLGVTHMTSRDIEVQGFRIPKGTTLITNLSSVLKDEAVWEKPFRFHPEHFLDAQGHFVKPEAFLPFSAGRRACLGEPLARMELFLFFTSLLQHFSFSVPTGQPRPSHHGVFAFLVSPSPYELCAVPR

[2] = Cycle 1 Day 1, 25 mg QD, geometric mean
[3] = Cycle 1 Day 1, 50 mg QD, geometric mean
[4] = Cycle 1 Day 1, 75 mg QD, geometric mean
[5] = Cycle 1 Day 1, 100 mg QD, geometric mean
[6] = Cycle 1 Day 1, 125 mg QD, geometric mean
[7] = Cycle 1 Day 15, 25 mg QD, geometric mean
[8] = Cycle 1 Day 15, 50 mg QD, geometric mean
[9] = Cycle 1 Day 15, 75 mg QD, geometric mean
[10] = Cycle 1 Day 15, 100 mg QD, geometric mean
[11] = Cycle 1 Day 15, 125 mg QD, geometric mean
[12] = Cycle 1 Day 15, 125 mg QD, single value
[13] = 25 mg, Cycle 1 Day 1, 25 mg QD, geometric mean
[14] = 25 mg, Cycle 1 Day 15, 25 mg QD, geometric mean
[15] = 50 mg, Cycle 1 Day 1, 50 mg QD, geometric mean
[16] = 50 mg, Cycle 1 Day 15, 50 mg QD, geometric mean
[17] = 75 mg, Cycle 1 Day 1, 75 mg QD, geometric mean
[18] = 75 mg, Cycle 1 Day 15, 75 mg QD, geometric mean
[19] = 100 mg, Cycle 1 Day 1, 100 mg QD, geometric mean
[20] = 100 mg, Cycle 1 Day 15, 100 mg QD, geometric mean
[21] = 125 mg, Cycle 1 Day 1, 125 mg QD, geometric mean
[22] = 125 mg, Cycle 1 Day 15, 125 mg QD, single value

Sequence of CYP2C19 (P33261 whole entry): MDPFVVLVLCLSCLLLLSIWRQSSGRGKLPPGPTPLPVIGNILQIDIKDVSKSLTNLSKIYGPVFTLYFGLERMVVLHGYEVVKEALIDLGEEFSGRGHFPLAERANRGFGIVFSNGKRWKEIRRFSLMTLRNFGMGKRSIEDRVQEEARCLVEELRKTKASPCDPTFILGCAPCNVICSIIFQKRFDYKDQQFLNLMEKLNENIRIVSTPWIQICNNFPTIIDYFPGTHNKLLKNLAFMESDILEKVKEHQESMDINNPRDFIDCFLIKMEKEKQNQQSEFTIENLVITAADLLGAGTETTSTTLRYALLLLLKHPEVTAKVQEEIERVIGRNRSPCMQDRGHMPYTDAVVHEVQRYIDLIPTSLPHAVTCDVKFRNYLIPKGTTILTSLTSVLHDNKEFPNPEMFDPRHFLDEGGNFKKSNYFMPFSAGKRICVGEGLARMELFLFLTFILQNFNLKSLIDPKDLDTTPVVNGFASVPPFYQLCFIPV

SMILES: CCn1ncc2c1-c1cnc(N)c(c1)O[C@H](C)c1cc(F)ccc1-c1nn(C)nc1C2 [Compound 1, (19R)-3-ethyl-16-fluoro-10,19-dimethyl-20-oxa-3,4,9,10,11,23-hexaazapentacyclo [19.3.1.0^2,^6.0^8,^12.0^13,^18]pentacosa-1 (24),2 (6),4,8,11,13,15,17,21 (25),22-decaen-22-amine]
- inducer of CYP3A4 (CYP3A4): potential inducer
- substrate for CYP2C19 (CYP2C19): not considered a substrate
- PK exposure ([1]; 25-100 mg once daily): dose-dependent exposure
- AUCinf—DN [1, 2]: 78.6 ng·h/mL/mg
- AUClast—DN [1, 2]: 54.4 ng·h/mL/mg
- CL/F [1, 2]: 12.7 L/h
- Cmax—DN [1, 2]: 8.0 ng/mL/mg
- AUCinf—DN [1, 3]: 81.8 ng·h/mL/mg
- AUClast—DN [1, 3]: 61.8 ng·h/mL/mg
- CL/F [1, 3]: 12.2 L/h
- Cmax—DN [1, 3]: 6.8 ng/mL/mg
- AUCinf—DN [1, 4]: 79.1 ng·h/mL/mg
- AUClast—DN [1, 4]: 53.4 ng·h/mL/mg
- CL/F [1, 4]: 12.6 L/h
- Cmax—DN [1, 4]: 8.6 ng/mL/mg
- AUCinf—DN [1, 5]: 86.9 ng·h/mL/mg
- AUClast—DN [1, 5]: 57.2 ng·h/mL/mg
- CL/F [1, 5]: 11.5 L/h
- Cmax—DN [1, 5]: 8.0 ng/mL/mg
- AUCinf—DN [1, 6]: 47.8 ng·h/mL/mg
- AUClast—DN [1, 6]: 40.1 ng·h/mL/mg
- CL/F [1, 6]: 20.9 L/h
- Cmax—DN [1, 6]: 7.5 ng/mL/mg
- Rac ([1]; Cycle 1 Day 15, 25 mg QD, arithmetic mean): 1.8
- AUCinf—DN [1, 7]: 196.0 ng·h/mL/mg
- AUCtau—DN [1, 7]: 111.4 ng·h/mL/mg
- CLss/F [1, 7]: 8.8 L/h
- Cmax—DN [1, 7]: 10.0 ng/mL/mg
- Rac ([1]; Cycle 1 Day 15, 50 mg QD, arithmetic mean): 1.6
- AUCinf—DN [1, 8]: 121.5 ng·h/mL/mg
- AUCtau—DN [1, 8]: 86.6 ng·h/mL/mg
- CLss/F [1, 8]: 11.5 L/h
- Cmax—DN [1, 8]: 13.7 ng/mL/mg
- Rac ([1]; Cycle 1 Day 15, 75 mg QD, arithmetic mean): 2.0
- AUCinf—DN [1, 9]: 180.3 ng·h/mL/mg
- AUCtau—DN [1, 9]: 93.5 ng·h/mL/mg
- CLss/F [1, 9]: 10.7 L/h
- Cmax—DN [1, 9]: 9.7 ng/mL/mg
- Rac ([1]; Cycle 1 Day 15, 100 mg QD, arithmetic mean): 2.1
- AUCinf—DN [1, 10]: 110.4 ng·h/mL/mg
- AUCtau—DN [1, 10]: 63.9 ng·h/mL/mg
- CLss/F [1, 10]: 15.6 L/h
- Cmax—DN [1, 10]: 8.2 ng/mL/mg
- AUCtau—DN [1, 11]: 52.8 ng·h/mL/mg
- CLss/F [1, 11]: 18.9 L/h
- Cmax—DN [1, 11]: 5.9 ng/mL/mg
- AUCinf—DN [1, 12]: 60.0 ng·h/mL/mg
- Rac [1, 12]: 1.5
- exposure in clinical trial versus target levels that provide regression in preclinical models ([1]; data as of Sep. 13, 2022): exceeded the target levels
- half-life ([1]; 25 mg, Cycle 1 Day 1, 25 mg QD, arithmetic mean, read-out: t1/2 (converted)): 15.5 h
- AUC(0-inf) [1, 13]: 1960 ng·h/mL
- Cmax [1, 13]: 199 ng/mL
- Vd/F [1, 13]: 270 L
- Tmax ([1]; 25 mg, Cycle 1 Day 1, 25 mg QD): 1 h
- half-life ([1]; 25 mg, Cycle 1 Day 15, 25 mg QD, arithmetic mean, read-out: t1/2 (converted)): 20.3 h
- AUC(0-inf) [1, 14]: 4900 ng·h/mL
- Cmax [1, 14]: 250 ng/mL
- Vd/F [1, 14]: 243 L
- Tmax ([1]; 25 mg, Cycle 1 Day 15, 25 mg QD): 1 h
- half-life ([1]; 50 mg, Cycle 1 Day 1, 50 mg QD, arithmetic mean, read-out: t1/2 (converted)): 12 h
- AUC(0-inf) [1, 15]: 4090 ng·h/mL
- Cmax [1, 15]: 338 ng/mL
- Vd/F [1, 15]: 200 L
- Tmax ([1]; 50 mg, Cycle 1 Day 1, 50 mg QD): 1 h
- half-life ([1]; 50 mg, Cycle 1 Day 15, 50 mg QD, arithmetic mean, read-out: t1/2 (converted)): 16 h
- AUC(0-inf) [1, 16]: 6070 ng·h/mL
- Cmax [1, 16]: 687 ng/mL
- Vd/F [1, 16]: 228 L
- Tmax ([1]; 50 mg, Cycle 1 Day 15, 50 mg QD): 0.5 h
- half-life ([1]; 75 mg, Cycle 1 Day 1, 75 mg QD, arithmetic mean, read-out: t1/2 (converted)): 16.4 h
- AUC(0-inf) [1, 17]: 5930 ng·h/mL
- Cmax [1, 17]: 642 ng/mL
- Vd/F [1, 17]: 294 L
- Tmax ([1]; 75 mg, Cycle 1 Day 1, 75 mg QD): 1 h
- half-life ([1]; 75 mg, Cycle 1 Day 15, 75 mg QD, arithmetic mean, read-out: t1/2 (converted)): 23.6 h
- AUC(0-inf) [1, 18]: 13500 ng·h/mL
- Cmax [1, 18]: 730 ng/mL
- Vd/F [1, 18]: 350 L
- Tmax ([1]; 75 mg, Cycle 1 Day 15, 75 mg QD): 1 h
- half-life ([1]; 100 mg, Cycle 1 Day 1, 100 mg QD, arithmetic mean, read-out: t1/2 (converted)): 17 h
- AUC(0-inf) [1, 19]: 8690 ng·h/mL
- Cmax [1, 19]: 802 ng/mL
- Vd/F [1, 19]: 267 L
- Tmax ([1]; 100 mg, Cycle 1 Day 1, 100 mg QD): 1.5 h
- AUC(0-inf) [1, 20]: 11000 ng·h/mL
- Cmax [1, 20]: 819 ng/mL
- Vd/F [1, 20]: 261 L
- Tmax ([1]; 100 mg, Cycle 1 Day 15, 100 mg QD): 0.8 h
- half-life ([1]; 100 mg, Cycle 1 Day 15, 100 mg QD, single value, read-out: t1/2 (converted)): 16.4 h
- half-life ([1]; 125 mg, Cycle 1 Day 1, 125 mg QD, arithmetic mean, read-out: t1/2 (converted)): 10.1 h
- AUC(0-inf) [1, 21]: 5980 ng·h/mL
- Cmax [1, 21]: 943 ng/mL
- Vd/F [1, 21]: 304 L
- Tmax ([1]; 125 mg, Cycle 1 Day 1, 125 mg QD): 0.5 h
- Cmax ([1]; 125 mg, Cycle 1 Day 15, 125 mg QD, geometric mean): 734 ng/mL
- Tmax ([1]; 125 mg, Cycle 1 Day 15, 125 mg QD): 0.5 h
- AUC(0-inf) [1, 22]: 7500 ng·h/mL
- Vd/F [1, 22]: 470 L
- half-life ([1]; 125 mg, Cycle 1 Day 15, 125 mg QD, single value, read-out: t1/2 (converted)): 14.4 h
- half-life ([1]; patients, data as of Sep. 13, 2022, read-out: half-life (converted)): ~20 h
- AUC(0-t) [1, 2]: 1360 ng·h/mL
- AUC(0-t) [1, 3]: 3090 ng·h/mL
- AUC(0-t) [1, 4]: 4000 ng·h/mL
- AUC(0-t) [1, 5]: 5720 ng·h/mL
- AUC(0-t) [1, 6]: 5020 ng·h/mL
- AUC [1, 7]: 2790 ng·h/mL
- concentration at 15 day [1, 7]: 67.2 ng/mL
- AUC [1, 8]: 4300 ng·h/mL
- concentration at 15 day [1, 8]: 83.4 ng/mL
- AUC [1, 9]: 7010 ng·h/mL
- concentration at 15 day [1, 9]: 187 ng/mL
- AUC [1, 10]: 6390 ng·h/mL
- concentration at 15 day [1, 10]: 296 ng/mL
- AUC [1, 11]: 6600 ng·h/mL
- concentration at 15 day [1, 11]: 141 ng/mL
- IC50 (Ba/F3 CLIP1-LTK): 9.57 nM
- substrate for CYP2D6 (CYP2D6): not considered a substrate
